Data published in ChEMBL document CHEMBL1151624, “Isolation of artemisinin (qinghaosu) from Artemisia annua growing in the United States” (J Nat Prod, 1984).
In brackets after ≈: the same amount, converted by molar mass.

Key:
[1] = system: Proteus sp.; assay: Antimicrobial activity against Proteus Sp.; assay type: functional; settings: Proteus sp. (in: enterobacteria)
[2] = system: Neisseria meningitidis; assay: Antimicrobial activity against Neisseria meningitidis; assay type: functional
[3] = system: Neisseria gonorrhoeae; assay: Antimicrobial activity against Neisseria gonorrhoeae; assay type: functional
[4] = system: Plasmodium falciparum; assay: Antimalarial activity against chloroquine-sensitive Plasmodium falciparum CAMP by semiautomated micro dilution assay; assay type: functional, organism-based
[5] = system: Plasmodium falciparum; assay: Antimalarial activity against chloroquine-resistant Plasmodium falciparum Smith by semiautomated micro dilution assay; assay type: functional, organism-based
[6] = system: Staphylococcus aureus; assay: Antimicrobial activity against Staphylococcus aureus; assay type: functional
[7] = system: Enterococcus faecalis; assay: Antimicrobial activity against Streptococcus faecalis; assay type: functional
[8] = system: Klebsiella; assay: Antimicrobial activity against Klebsiella; assay type: functional
[9] = system: Shigella dysenteriae; assay: Antimicrobial activity against Shigella dysenteriae; assay type: functional
[10] = system: Escherichia coli; assay: Antimicrobial activity against Escherichia coli; assay type: functional
[11] = system: Serratia marcescens; assay: Antimicrobial activity against Serratia marcescens; assay type: functional

Compound: C[C@@H]1CC[C@H]2[C@@H](C)C(=O)O[C@@H]3O[C@@]4(C)CC[C@@H]1[C@]32OO4 [ARTEMISININ]
- MIC [1]: > 32 µg/mL
- MIC [2]: > 1 µg/mL
- MIC [3]: > 1 µg/mL
- IC50 [4]: < 0.0034 µg/mL
- IC50 [5]: < 0.0034 µg/mL
- MIC [6]: > 32 µg/mL
- MIC [7]: > 32 µg/mL
- MIC [8]: > 32 µg/mL
- MIC [9]: > 32 µg/mL
- MIC [10]: > 32 µg/mL
- MIC [11]: > 32 µg/mL

Compound: OC(c1cc(C(F)(F)F)nc2c(C(F)(F)F)cccc12)C1CCCCN1 (stereo not drawn) [MEFLOQUINE]
- IC50 [4]: 0.0035 µg/mL (≈ 0.00925 µM)
- IC50 [5]: 0.0025 µg/mL (≈ 0.00661 µM)
